Test results from US20220291238A1, “Methods for Predicting Treatment Response in Ulcerative Colitis” (Janssen Biotech, Inc., priority 2021, published 2022).

Legend:
human colonoids = experiment: Cytokine treatment of human colonoids, RNA-seq; assay type: cell-based; conditions: human colonoids, 24 hours
Procedure: All patients provided informed consent (NRES/IRAS id:15/LO/1998). Subsequent establishment of human colonoids was performed as previously described by Sato et al (48). The crypts were cultured in growth medium containing advanced Dulbecco's modified Eagle's medium/F12, penicillin/streptomycin (100 units/mL), 10 mM HEPES, 2 mM Glutamax, supplements N2 (1×) and B27 (1×), 50 ng/mL mouse epidermal growth factor (all from Life Technologies; Carlsbad, Calif.), 1 mM N-acetylcysteine (Sigma-Aldrich; St. Louis, Mo.), 50% v/v Wnt3a conditioned medium, 10% v/v R-spondin-1 conditioned medium, 100 ng/mL murine recombinant noggin protein (Peprotech; Rocky Hill, N.J.), 10 nM gastrin (Sigma-Aldrich), 500 nM A83-01 (Bio-techne; Minneapolis, Minn.), 10 μM SB202190 (Sigma-Aldrich) and 10 mM Nicotinamide (Sigma-Aldrich). 10 μM Y-27632 (Sigma-Aldrich) was added to the culture medium for the initial 3 days. Medium was changed every 2 days. […] During the last 24 hours in differentiation medium, human colonoids were treated with human recombinant IL22 (10 ng/mL), IL17A (50 ng/mL), TNFα (10 ng/mL), IFNγ (20 ng/mL), IL13 (10 ng/mL) and IL22 (10 ng/mL)/IL17A (50 ng/mL) combination.
(§1) RNA extraction: Colonoids and LPMC were treated in a similar fashion. Cells were lysed and RNA was extracted using the RNAeasy kit (Qiagen; Hilden, Germany). This step was optimized balancing the effectiveness of elimination of DNA quantified (Qubit dsDNA HS assay kit) versus the loss of quantity of RNA (Qubit RNA BR assay kit). Optimal DNAse I concentration was determined to be ×5 the standard concentration. 500 ng of cDNA was then created using Revertaid cDNA synthesis kit (ThermoFisher) and diluted to a concentration of 6.25 ng/μl. Harvested colonoids were put in Qiazol and then RNA was extracted with the RNAeasy kit (Qiagen) as per manufacturer's guidelines. cDNA was created using the Revertaid cDNA synthesis kit (ThermoFisher).
Library preparation and sequencing: A total amount of 3 μg RNA per sample was used as input material for the RNA sample preparations. Sequencing libraries were generated using NEBNextR Ultra™ RNA Library Prep Kit for IlluminaR (NEB, Ipswich, Mass.) following manufacturer's recommendations and index codes were added to attribute sequences to each sample. Briefly, mRNA was purified from total RNA using poly-T oligo-attached magnetic beads. Fragmentation was carried out using divalent cations under elevated temperature in NEBNext First Strand Synthesis Reaction Buffer (5×). First strand cDNA was synthesized using random hexamer primer and M-MuLV Reverse Transcriptase (RNase H-). Second strand cDNA synthesis was subsequently performed using DNA Polymerase I and RNase H. Remaining overhangs were converted into blunt ends via exonuclease/polymerase activities. After adenylation of 3′ ends of DNA fragments, NEBNext Adaptor with hairpin loop structure were ligated to prepare for hybridization. In order to select cDNA fragments of preferentially 150˜200 bp in length, the library fragments were purified with AMPure XP system (Beckman Coulter, Brea, Calif.). Then 3 μl USER Enzyme (NEB) was used with size-selected, adaptor-ligated cDNA at 37° C. for 15 minutes followed by 5 minutes at 95° C. before PCR. Then PCR was performed with Phusion High-Fidelity DNA polymerase, Universal PCR primers and Index (X) Primer. At last, PCR products were purified (AMPure XP system) and library quality was assessed on the Agilent Bioanalyzer 2100 system. The clustering of the index-coded samples was performed on a cBot Cluster Generation System using HiSeq PE Cluster Kit cBot-HS (Illumina; San Diego, Calif.) according to the manufacturer's instructions. After cluster generation, the paired-end libraries were sequenced on an Illumina HiSeq platform. […]

[1] = tested on: lamina propria mononuclear cells (LPMC); experiment: IL23 stimulation of LPMC from UC patients, RNA-seq; assay type: cell-based, human
Procedure: Human LPMC isolation: Colonic mucosal biopsies were obtained from UC patients (n=5) with endoscopically active disease (Mayo endoscopic subscore ≥2). LPMCs were isolated using a non-digestion, ‘walk out’ method previously published (Di Marco Barros et al., 2016, Cell 167, 203-218). In brief, 9 mm×9 mm×1.5 mm Cellfoam matrices (Cytomatrix PTY Ltd; Victoria, Australia) were autoclaved and incubated in 100 μg/mL rat tail collagen I (BD Biosciences; San Jose, Calif.) in PBS for 30 min at 37° C. and washed twice in PBS. Biopsies were washed for 20 min in 5 mL wash medium (RPMI 1640 10% FCS, β-mercaptoethanol, penicillin (500U/ml), streptomycin ([…]), metronidazole (5 mg/ml), gentamicin ([…], Sigma-Aldrich) and amphotericin 12.5 mg/ml (Thermo Fisher Scientific; Waltham, Mass.)). One endoscopic biopsy was placed on top of each matrix, which was then inverted and pressure was applied to crush the biopsy into the matrix. The matrices were placed into a 24-well plate (1 per well) and covered with 2 mL RPMI 1640 (supplemented with 10% FCS, β-mercaptoethanol, penicillin (100 U/ml), streptomycin ([…]), metronidazole (1 mg/ml), gentamicin (20 mg/ml), amphotericin (2.5 mg/ml)) and IL-2 (100U/mL, Novartis Pharmaceutical UK; London, United Kingdom). Cells were harvested and residual biopsy and empty wells were washed with PBS 0.02 mM HEPES. The cell suspension was passed through a […] nylon cell strainer, centrifuged at 400 g for 5 minutes.
After LPMC isolation, a cell count was performed using a hemochromocytometer and 200,000 cells were placed in each well of a 96 well round bottomed plate until the supply was exhausted. Complete media either with or without IL23 (10 ng/ml Biolegend; San Diego, Calif.) was added to each well to a total volume of 200 μl and incubated at 37° C. at 5% CO2 for 4 hours. Then cells from wells treated in the same condition were combined in a 1.5 ml RNAse free Eppendorf. The Eppendorfs were centrifuged at 1200 g for 5 minutes, the supernatant was removed and 800 μl Qiazol (Qiagen, Germany) added and mechanically homogenized using a needle and syringe.
as §1
Library preparation and sequencing: A total amount of 3 μg RNA per sample was used as input material for the RNA sample preparations. Sequencing libraries were generated using NEBNextR Ultra™ RNA Library Prep Kit for IlluminaR (NEB, Ipswich, Mass.) following manufacturer's recommendations and index codes were added to attribute sequences to each sample. Briefly, mRNA was purified from total RNA using poly-T oligo-attached magnetic beads. Fragmentation was carried out using divalent cations under elevated temperature in NEBNext First Strand Synthesis Reaction Buffer (5×). First strand cDNA was synthesized using random hexamer primer and M-MuLV Reverse Transcriptase (RNase H-). Second strand cDNA synthesis was subsequently performed using DNA Polymerase I and RNase H. Remaining overhangs were converted into blunt ends via exonuclease/polymerase activities. After adenylation of 3′ ends of DNA fragments, NEBNext Adaptor with hairpin loop structure were ligated to prepare for hybridization. […]

[2] = tested on: patients with moderate-to-severe UC; experiment: UNIFI phase 3 trial: ustekinumab induction in UC patients stratified by baseline IL22 enrichment score; assay type: in vivo, human; conditions: week 8
Text: Gene Set Variation Analysis: To test the activation of each of the cytokine regulated transcriptional programs we used gene set variation analysis (GSVA) (56) to probe whole transcriptional profiles of previously reposited datasets and the dataset generated in the context of the ustekinumab and golimumab trials programs.
UNIFI trial programme: The UNIFI trial was a randomized placebo-controlled phase 3 clinical trial evaluating the efficacy and safety of ustekinumab (NCT02407236) and has already been reported (43). In this study, for the first time, transcriptional data from biopsies were reported, which were correlated to clinical, endoscopic and biomarker data available from the UNIFI cohort. Colonic biopsies were sampled at defined time points after institution of treatment in a subset of patients and were immediately transferred to RNALater (Qiagen) and stored at −80° C. prior to RNA extraction. Whole genome transcriptomics were performed on the Affymetrix HG U133 PM array. Clinical data was recorded prospectively according to the trial protocol. Outcomes reported include: clinical remission (defined as a total Mayo score of ≤2 and no subscore >1) and deep remission (which required both histologic improvement (defined as neutrophil infiltration in <5% of crypts, no crypt destruction, and no erosions, ulcerations, or granulation tissue) and endoscopic improvement) at week 8. Analysis presented is based on all patients receiving ustekinumab regardless of dose (130 mg and 6 mg/kg).
Next, it was determined whether core transcripts regulated by the IL23/IL22 axis were differentially expressed in diseased tissue of UC patients. Gene Set Variation Analysis (GSVA) is an algorithm which tests whether entire transcriptional programmes are enriched in complex and heterogeneous samples. […] Endoscopically acquired colonic biopsies were sampled from the sigmoid colon of patients with moderate-to-severe UC (n=550) enrolled to the UNIFI phase III clinical trial, a randomized, placebo controlled trial evaluating the efficacy of ustekinumab, a monoclonal antibody (mAb) that blocks the p40 subunit shared by the human IL-12 and IL-23 cytokines. […] These findings were replicated in 2 additional independent cohorts of UC patients where transcriptomic data was available in publicly accessible repositories (GSE50971 and GSE16879, FIG. 4A). […] Consistent with IL23 being an important driver of IL22, there was a significant correlation between the enrichment scores for IL23 and IL22 in colonic biopsies.
Although IL23 and IL22 responsive transcriptional programs were enriched at population level in UC patients, there was considerable variation in magnitude of enrichment. Since it was unlikely that this variation was being driven by differences in disease severity (all patients in the UNIFI trial program had moderate to severe UC, with Mayo endoscopy subscores of either 2 or 3), the possibility that this molecular heterogeneity might represent important differences in underlying disease immunobiology was considered. If molecular stratification of UC patients according to the magnitude of IL23/IL22 responsive transcript enrichment was biologically and/or clinically meaningful, it was reasoned that UC patients with different degrees of enrichment would experience different outcomes and follow different trajectories. To test this hypothesis, patients from the UNIFI trial program were stratified according to IL23 or IL22 enrichment scores (in colonic biopsies sampled immediately prior initiation with ustekinumab), and whether these differences in molecular phenotype impacted treatment response were evaluated. Enrichment scores in colonic tissue, for both cytokines, could differentiate responders and non-responders to ustekinumab induction therapy (including patients on 130 mg and 6 mg/kg dose), although, the IL22-responsive transcriptional program was especially discriminatory (FIGS. 3D-3F and FIGS. 5A-5D). […]

[3] = patients with low IL22 enrichment scores (ES<0)

## IL13: human recombinant IL13 (10 ng/mL) used on human colonoids
Human colonoids
  regulation of chemokine expression: strongly upregulate both eosinophil-active chemokines CCL24 and CCL26

## IL23: recombinant IL23 (10 ng/ml, Biolegend) used to stimulate LPMC
[1]; IL23 10 ng/ml, 4 hours
  GZMB transcript fold change: 1.40
  IFNG transcript fold change: 1.77
  IL17A transcript fold change: 1.24
  IL17F transcript fold change: 1.70
  IL22 transcript fold change: 1.69
  TNFRSF8 transcript fold change: 1.41
[1]; filtered at P<0.01
  differentially expressed transcripts: 222 transcripts
  downregulated transcripts: 110
  upregulated transcripts: 112

## ustekinumab: monoclonal antibody blocking the p40 subunit shared by IL-12 and IL-23; heavy chain SEQ ID NO:10, light chain SEQ ID NO:11
[2]; high IL22 enrichment scores
  outcomes in UC patients with high IL22 enrichment scores: broadly comparable to placebo treated patients
[2]; [3]
  clinical remission: 26.6%
  deep remission (clinical, endoscopic and histologic remission): 22.7%
  mucosal healing: 25.9%
[2]; unstratified UC patients
  deep remission (clinical, endoscopic and histologic remission): 11.7%
  mucosal healing: 15.6%
[2]; unstratified UC patients, ustekinumab induction 130 mg and 6 mg/kg pooled
  clinical remission: 13.4%

B1: IFNγ: human recombinant IFNγ (20 ng/mL) used on human colonoids (protein, UniProt P01579 24-161, looked up)
Interferon gamma: QDPYVKEAENLKKYFNAGHSDVADNGTLFLGILKNWKEESDRKIMQSQIVSFYFKLFKNFKDDQSIQKSVETIKEDMNVKFFNSNKKKRDDFEKLTNYSVTDLNVQRKAIHELIQVMAELSPAAKTGKRKRSQMLFRG
Human colonoids
  regulation of chemokine expression: strongly upregulated CXCL9 and CXCL10
